In US20230399312A1, “SUBSTITUTED PYRIMIDINES AND METHODS OF USE” (THERAVANCE BIOPHARMA R&D IP, LLC, priority 2020, published 2023):

Tests used:
[1] = biological target: T1, recombinant human ALK5 (TGF-βR1) protein (Homo sapiens, UniProt P36897); assay: Biochemical ALK5 (TGF-βR1) assay to measure pKi (LANCE Ultra ULight kinase assay); conditions: apparent pKi, converted from pIC50 by Cheng-Prusoff
T1 construct: purchased Life Technologies PR9075A
T1 sequence (P36897 34-503): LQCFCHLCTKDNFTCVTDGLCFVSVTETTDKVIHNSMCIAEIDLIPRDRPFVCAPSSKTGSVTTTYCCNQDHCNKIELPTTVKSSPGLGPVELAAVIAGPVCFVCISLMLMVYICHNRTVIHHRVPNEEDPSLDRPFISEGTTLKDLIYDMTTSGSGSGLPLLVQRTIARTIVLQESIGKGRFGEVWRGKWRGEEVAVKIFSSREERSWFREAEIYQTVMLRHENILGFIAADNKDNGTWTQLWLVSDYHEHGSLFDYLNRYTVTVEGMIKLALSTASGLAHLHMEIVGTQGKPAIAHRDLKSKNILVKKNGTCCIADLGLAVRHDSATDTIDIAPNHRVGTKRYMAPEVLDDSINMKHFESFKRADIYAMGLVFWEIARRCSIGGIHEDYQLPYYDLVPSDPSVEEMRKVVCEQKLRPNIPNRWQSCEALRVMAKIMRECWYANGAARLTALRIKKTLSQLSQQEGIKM
Outline: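 Dose-response series of each compound were preincubated with the kinase for 60 minutes at room temperature. Phosphorylation proceeded for 60 minutes at 37 °C after ATP addition, was quenched with EDTA, and was detected with a europium anti-phospho-Thr1342 antibody by TR-FRET; pKi was calculated from pIC50.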

[2] = system: TGF-β-stimulated SMAD3 phosphorylation in BEAS-2B cells; assay: Cellular ALK5 potency assay, inhibition of TGF-β stimulated pSMAD3 formation in BEAS-2B cells; assay type: cell-based; conditions: Homo sapiens, pSMAD3, TGF-β 10 ng/mL, read-out: BEAS2B pIC50 (converted)
Outline: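 Human lung epithelial BEAS-2B cells were pre-treated with compound for 1 h at 37 °C, then stimulated with TGF-β (final 10 ng/mL) for 30 min before lysis. pSMAD3 was quantified by AlphaLISA and pIC50 derived from dose-dependent signal change versus TGF-β-stimulated untreated cells.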

Cc1cccc(-c2nccc(Nc3ccnc(Nc4ccc(CN5CCNC(C)(C)C5)cc4)n3)n2)n1 [Compound 249, N2-[4-[(3,3-dimethylpiperazin-1-yl)methyl]phenyl]-N4-[2-(6-methyl-2-pyridyl)pyrimidin-4-yl]pyrimidine-2,4-diamine]
Ki [1]: 0.0398 to 0.316 nM
IC50 [2]: 25.1 to 158 nM

COCCOc1ccc(Nc2nccc(Nc3ccnc(-c4cccc(C)n4)n3)n2)cc1 [Compound 250, N2-[4-(2-methoxyethoxy)phenyl]-N4-[2-(6-methyl-2-pyridyl)pyrimidin-4-yl]pyrimidine-2,4-diamine]
Ki [1]: 0.398 to 3.16 nM
IC50 [2]: 25.1 to 158 nM

CNC1CCN(c2ccc(Nc3nccc(Nc4ccnc(-c5cccc(C)n5)n4)n3)cc2)CC1 [Compound 251, N2-[4-[4-(methylamino)-1-piperidyl]phenyl]-N4-[2-(6-methyl-2-pyridyl)pyrimidin-4-yl]pyrimidine-2,4-diamine]
Ki [1]: 0.0398 to 0.316 nM
IC50 [2]: 200 to 1260 nM

COC(=O)Cc1cc(Nc2nccc(Nc3ccnc(-c4cccc(C)n4)n3)n2)ccc1N1CCNCC1 [Compound 252, methyl 2-[5-[[4-[[2-(6-methyl-2-pyridyl)pyrimidin-4-yl]amino]pyrimidin-2-yl]amino]-2-piperazin-1-yl-phenyl]acetate]
Ki [1]: ≤ 0.0316 nM
IC50 [2]: 25.1 to 158 nM

Cc1cccc(-c2nccc(Nc3ccnc(Nc4ccc(CCN(C)C)cc4)n3)n2)n1 [Compound 253, N2-[4-[2-(dimethylamino)ethyl]phenyl]-N4-[2-(6-methyl-2-pyridyl)pyrimidin-4-yl]pyrimidine-2,4-diamine]
Ki [1]: 0.0398 to 0.316 nM
IC50 [2]: 25.1 to 158 nM

COC(=O)[C@@H]1CN(Cc2ccc(Nc3nccc(Nc4ccnc(-c5cccc(C)n5)n4)n3)cc2)CCN1 [Compound 254, methyl (2S)-4-[[4-[[4-[[2-(6-methyl-2-pyridyl)pyrimidin-4-yl]amino]pyrimidin-2-yl]amino]phenyl]methyl] piperazine-2-carboxylate]
Ki [1]: 0.0398 to 0.316 nM
IC50 [2]: ≤ 20 nM

Cc1ccc(O)cc1-c1nccc(Nc2ccnc(Nc3ccc(N4CCC(N5CCN(C)CC5)CC4)cc3)n2)n1 [Compound 255, 4-methyl-3-(4-((2-((4-(4-(4-methylpiperazin-1-yl)piperidin-1-yl)phenyl)amino)pyrimidin-4-yl)amino)pyrimidin-2-yl)phenol]
Ki [1]: 0.398 to 3.16 nM
IC50 [2]: 25.1 to 158 nM

Cc1cccc(-c2nccc(Nc3ccnc(Nc4nc(C(=O)OCC5CNC5)cs4)n3)n2)n1 [Compound 256, azetidin-3-ylmethyl 2-[[4-[[2-(6-methyl-2-pyridyl)pyrimidin-4-yl]amino]pyrimidin-2-yl]amino]thiazole-4-carboxylate]
Ki [1]: 0.398 to 3.16 nM
IC50 [2]: 200 to 1260 nM

Cc1cccc(-c2nccc(Nc3ccnc(Nc4cccc(C(=O)O[C@H]5CCNC5)c4)n3)n2)n1 [Compound 257, [(3S)-pyrrolidin-3-yl] 3-[[4-[[2-(6-methyl-2-pyridyl)pyrimidin-4-yl]amino]pyrimidin-2-yl]amino]benzoate]
Ki [1]: 0.398 to 3.16 nM
IC50 [2]: 25.1 to 158 nM

Cc1cccc(-c2nccc(Nc3ccnc(Nc4ccc(C(=O)OC5CNC5)s4)n3)n2)n1 [Compound 258, azetidin-3-yl 5-[[4-[[2-(6-methyl-2-pyridyl)pyrimidin-4-yl]amino]pyrimidin-2-yl]amino]thiophene-2-carboxylate]
Ki [1]: 0.0398 to 0.316 nM
IC50 [2]: 25.1 to 158 nM

Cc1cccc(-c2nccc(Nc3ccnc(Nc4ccc(NCCN)cc4)n3)n2)n1 [Compound 259, N2-[4-(2-aminoethylamino)phenyl]-N4-[2-(6-methyl-2-pyridyl)pyrimidin-4-yl]pyrimidine-2,4-diamine]
Ki [1]: 0.0398 to 0.316 nM
IC50 [2]: 25.1 to 158 nM

Cc1cccc(-c2nccc(Nc3ccnc(Nc4cccc(C(=O)OC5CNC5)c4)n3)n2)n1 [Compound 260, azetidin-3-yl 3-[[4-[[2-(6-methyl-2-pyridyl)pyrimidin-4-yl]amino]pyrimidin-2-yl]amino]benzoate]
Ki [1]: 0.0398 to 0.316 nM
IC50 [2]: 25.1 to 158 nM

CC(=O)N1CCN(c2ccc(Nc3nccc(Nc4ccnc(-c5cccc(C)n5)n4)n3)cc2)CC1 [Compound 261, 1-[4-[4-[[4-[[2-(6-methyl-2-pyridyl)pyrimidin-4-yl]amino]pyrimidin-2-yl]amino]phenyl]piperazin-1-yl]ethanone]
Ki [1]: ≤ 0.0316 nM
IC50 [2]: ≤ 20 nM

Cc1cccc(-c2nccc(Nc3ccnc(Nc4ccc(CN5CC(C)(N(C)C)C5)cc4)n3)n2)n1 [Compound 262, N2-[4-[[3-(dimethylamino)-3-methyl-azetidin-1-yl]methyl]phenyl]-N4-[2-(6-methyl-2-pyridyl)pyrimidin-4-yl]pyrimidine-2,4-diamine]
Ki [1]: 0.0398 to 0.316 nM
IC50 [2]: 25.1 to 158 nM

Cc1cccc(-c2nccc(Nc3ccnc(Nc4ccc(NCCN5C[C@@H](C)N[C@@H](C)C5)cc4)n3)n2)n1 [Compound 263, N4-[2-(6-methyl-2-pyridyl)pyrimidin-4-yl]-N2-[4-[2-[rac-(3S,5R)-3,5-dimethylpiperazin-1-yl]ethylamino]phenyl] pyrimidine-2,4-diamine]
Ki [1]: 0.0398 to 0.316 nM
IC50 [2]: 25.1 to 158 nM

Cc1cccc(-c2nccc(Nc3ccnc(Nc4ccc(S(=O)(=O)N5CCN(C(C)(C)C)CC5)cc4)n3)n2)n1 [Compound 264, N2-[4-(4-tert-butylpiperazin-1-yl)sulfonylphenyl]-N4-[2-(6-methyl-2-pyridyl)pyrimidin-4-yl]pyrimidine-2,4-diamine]
Ki [1]: 0.0398 to 0.316 nM
IC50 [2]: 25.1 to 158 nM

Cc1cccc(-c2nccc(Nc3ccnc(Nc4ccc(NC(=O)C5CCNCC5)c(C)c4)n3)n2)n1 [Compound 265, N-[2-methyl-4-[[4-[[2-(6-methyl-2-pyridyl)pyrimidin-4-yl]amino]pyrimidin-2-yl]amino]phenyl]piperidine-4-carboxamide]
Ki [1]: 0.0398 to 0.316 nM
IC50 [2]: ≤ 20 nM

Cc1cccc(-c2nccc(Nc3ccnc(Nc4ccc(N5CCN(C)CC5)cn4)n3)n2)n1 [Compound 267, N2-[5-(4-methylpiperazin-1-yl)-2-pyridyl]-N4-[2-(6-methyl-2-pyridyl)pyrimidin-4-yl]pyrimidine-2,4-diamine]
Ki [1]: 0.398 to 3.16 nM
IC50 [2]: 25.1 to 158 nM

COC(=O)[C@H]1CN(Cc2ccc(Nc3nccc(Nc4ccnc(-c5cccc(C)n5)n4)n3)cc2)CCN1 [Compound 268, methyl (2R)-4-[[4-[[4-[[2-(6-methyl-2-pyridyl)pyrimidin-4-yl]amino]pyrimidin-2-yl]amino]phenyl]methyl] piperazine-2-carboxylate]
Ki [1]: 0.0398 to 0.316 nM
IC50 [2]: ≤ 20 nM

Cc1cccc(-c2nccc(Nc3ccnc(Nc4ccc(NC(=O)C5CCN(CCN(C)C)CC5)cc4)n3)n2)n1 [Compound 269, 1-[2-(dimethylamino)ethyl]-N-[4-[[4-[[2-(6-methyl-2-pyridyl)pyrimidin-4-yl]amino]pyrimidin-2-yl]amino]phenyl]piperidine-4-carboxamide]
Ki [1]: 0.0398 to 0.316 nM
IC50 [2]: 200 to 1260 nM

Cc1cccc(-c2nccc(Nc3ccnc(Nc4ccc(S(=O)(=O)N5CCN(C)CC5)cc4)n3)n2)n1 [Compound 270, N2-[4-(4-methylpiperazin-1-yl)sulfonylphenyl]-N4-[2-(6-methyl-2-pyridyl)pyrimidin-4-yl]pyrimidine-2,4-diamine]
Ki [1]: 0.0398 to 0.316 nM
IC50 [2]: 25.1 to 158 nM

CNC(=O)[C@@H]1CN(Cc2ccc(Nc3nccc(Nc4ccnc(-c5cccc(C)n5)n4)n3)cc2)CCN1 [Compound 271, (2S)-N-methyl-4-[[4-[[4-[[2-(6-methyl-2-pyridyl)pyrimidin-4-yl]amino]pyrimidin-2-yl]amino]phenyl]methyl] piperazine-2-carboxamide]
Ki [1]: 0.0398 to 0.316 nM
IC50 [2]: 25.1 to 158 nM

Cc1cccc(-c2nccc(Nc3ccnc(Nc4ccc(NS(C)(=O)=O)cc4)n3)n2)n1 [Compound 272, N-[4-[[4-[[2-(6-methyl-2-pyridyl)pyrimidin-4-yl]amino]pyrimidin-2-yl]amino]phenyl] methanesulfonamide]
Ki [1]: 0.0398 to 0.316 nM
IC50 [2]: 25.1 to 158 nM

CNCCNS(=O)(=O)c1cccc(Nc2nccc(Nc3ccnc(-c4cccc(C)n4)n3)n2)c1 [Compound 273, N-[2-(methylamino)ethyl]-3-[[4-[[2-(6-methyl-2-pyridyl)pyrimidin-4-yl]amino]pyrimidin-2-yl]amino]benzenesulfonamide]
Ki [1]: 0.0398 to 0.316 nM
IC50 [2]: 25.1 to 158 nM

Cc1cccc(-c2nccc(Nc3ccnc(Nc4ccc(CN5CCC(C(=O)OCC6CNC6)CC5)cc4)n3)n2)n1 [Compound 275, azetidin-3-ylmethyl 1-[[4-[[4-[[2-(6-methyl-2-pyridyl)pyrimidin-4-yl]amino]pyrimidin-2-yl]amino]phenyl]methyl] piperidine-4-carboxylate]
Ki [1]: 0.0398 to 0.316 nM
IC50 [2]: 25.1 to 158 nM

Cc1cccc(-c2nccc(Nc3ccnc(Nc4ccc(NC(=O)N5CCN[C@@H](CO)C5)cc4)n3)n2)n1 [Compound 276, (3R)-3-(hydroxymethyl)-N-[4-[[4-[[2-(6-methyl-2-pyridyl)pyrimidin-4-yl]amino]pyrimidin-2-yl]amino]phenyl]piperazine-1-carboxamide]
Ki [1]: 0.0398 to 0.316 nM
IC50 [2]: 25.1 to 158 nM
